How the values were obtained:
Carbonic anhydrase 9 = Carbonic anhydrase 9 (Homo sapiens, UniProt Q16790)
WI-38 = assay: Cytotoxicty activity against human WI38 cells measured after 72 hrs by MTT assay; type: cell-based; conditions: WI-38, 72 h
HCT-116 [1] = assay: cells; type: functional, cell-based; conditions: Homo sapiens, HCT-116, 72 h
Description: Antiproliferative activity against human HCT116 cells measured after 72 hrs under CoCl2-induced hypoxic condition by MTT assay

PC-3 [2] = assay: cells; type: functional, cell-based; conditions: Homo sapiens, PC-3, 72 h
Description: Antiproliferative activity against human PC3 cells measured after 72 hrs under normoxic condition by MTT assay

PC-3 [3] = assay: cells; type: functional, cell-based; conditions: Homo sapiens, PC-3, 72 h; remark: listed apart in the source
Description: Antiproliferative activity against human PC3 cells measured after 72 hrs under CoCl2-induced hypoxic condition by MTT assay

Carbonic anhydrase 2 = Carbonic anhydrase 2 (Homo sapiens, UniProt P00918)
Carbonic anhydrase 4 = Carbonic anhydrase 4 (Homo sapiens, UniProt P22748)
Carbonic anhydrase 4, sequence (P22748 whole entry): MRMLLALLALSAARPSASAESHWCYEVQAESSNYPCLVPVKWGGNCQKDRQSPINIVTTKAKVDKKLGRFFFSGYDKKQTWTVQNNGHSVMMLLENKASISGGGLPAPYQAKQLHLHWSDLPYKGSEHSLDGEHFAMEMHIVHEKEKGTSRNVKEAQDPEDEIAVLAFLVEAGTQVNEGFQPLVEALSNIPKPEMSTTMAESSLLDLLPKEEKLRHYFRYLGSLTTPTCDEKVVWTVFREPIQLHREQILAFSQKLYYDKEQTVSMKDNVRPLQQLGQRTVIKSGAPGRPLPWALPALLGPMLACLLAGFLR

Carbonic anhydrase 1 = Carbonic anhydrase 1 (Homo sapiens, UniProt P00915)
Carbonic anhydrase 1, sequence (P00915 whole entry): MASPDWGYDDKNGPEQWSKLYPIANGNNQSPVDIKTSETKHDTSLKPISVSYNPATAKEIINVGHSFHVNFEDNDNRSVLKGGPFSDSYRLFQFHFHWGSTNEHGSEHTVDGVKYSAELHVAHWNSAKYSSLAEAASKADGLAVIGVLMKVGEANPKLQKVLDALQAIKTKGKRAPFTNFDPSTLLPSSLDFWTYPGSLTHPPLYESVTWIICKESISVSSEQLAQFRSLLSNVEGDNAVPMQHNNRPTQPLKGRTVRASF

HCT-116 [4] = assay: cells; type: functional, cell-based; conditions: Homo sapiens, HCT-116, 72 h; remark: listed apart in the source
Description: Antiproliferative activity against human HCT116 cells measured after 72 hrs under normoxic condition by MTT assay

A549 [5] = assay: cells; type: functional, cell-based; conditions: Homo sapiens, A549, 72 h
Description: Antiproliferative activity against human A549 cells measured after 72 hrs under normoxic condition by MTT assay

A549 [6] = assay: cells; type: functional, cell-based; conditions: Homo sapiens, A549, 72 h; remark: listed apart in the source
Description: Antiproliferative activity against human A549 cells measured after 72 hrs under CoCl2-induced hypoxic condition by MTT assay

Carbonic anhydrase 7 = Carbonic anhydrase 7 (Homo sapiens, UniProt P43166)
Carbonic anhydrase 7, sequence (P43166 whole entry): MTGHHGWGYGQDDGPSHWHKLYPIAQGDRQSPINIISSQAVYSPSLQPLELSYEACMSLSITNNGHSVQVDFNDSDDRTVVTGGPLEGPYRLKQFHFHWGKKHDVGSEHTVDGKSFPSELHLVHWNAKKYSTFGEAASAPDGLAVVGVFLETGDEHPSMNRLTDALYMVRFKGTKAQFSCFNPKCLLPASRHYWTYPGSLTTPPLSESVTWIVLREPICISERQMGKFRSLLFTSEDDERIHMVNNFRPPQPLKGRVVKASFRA

HCT-116 [7] = assay: Induction of apoptosis in human HCT116 cells assessed as downregulation of Bcl-2 expression at normoxic antiproliferative IC50 measured after 48 hrs by ELISA relative to control; type: functional

Ki (Carbonic anhydrase 9) [µM]	IC50 (HCT-116 [1]) [µM]	IC50 (PC-3 [2]) [µM]	IC50 (PC-3 [3]) [µM]	Ki (Carbonic anhydrase 2) [µM]	Ki (Carbonic anhydrase 4) [µM]	Ki (Carbonic anhydrase 1) [µM]	IC50 (HCT-116 [4]) [µM]	IC50 (A549 [5]) [µM]	IC50 (A549 [6]) [µM]	Ki (Carbonic anhydrase 7) [µM]	Compound	IC50 (WI-38) [µM]	Activity (HCT-116 [7]) [%]
0.139	7.13	23.8	16.9	0.853	3.46	3.41	10.9	19.9	16.3	7.51	CN1C(=O)NS(=O)(=O)c2ccccc21	40.9	
0.368				2.19	1.43	2.54				1.9	Cc1ccc(C)c2c1NC(=O)NS2(=O)=O		
						> 10					O=C1NS(=O)(=O)c2ccccc21 [SACCHARIN]		
0.0584				0.14	0.461	0.547				0.126	O=C1Nc2c(F)cccc2S(=O)(=O)N1		
0.0881				3.02	0.452	1.89				2.56	O=C1Nc2ccc(O)cc2S(=O)(=O)N1		
0.031				2.36	1.56	4.4				0.468	O=C1Nc2ccc(Br)cc2S(=O)(=O)N1		
0.0912				2.44	0.38	5.78				2.8	O=C1Nc2c(C(=O)O)cccc2S(=O)(=O)N1		
0.273				1.06	3.89	6.86				1.28	O=C1NS(=O)(=O)c2cccc3c2N1CC3		
0.0458				0.872	0.897	1.07				0.956	Cc1ccc2c(c1)S(=O)(=O)NC(=O)N2		
0.0258	4.18	6.31	0.82	0.764	1.64	1.27	3.85	4.77	5.74	0.691	Cc1cc(C)c2c(c1)S(=O)(=O)NC(=O)N2	23.5	
0.0639				0.144	1.23	0.969				0.975	Cc1cccc2c1NC(=O)NS2(=O)=O		
0.0602				0.484	2.67	2.07				3.95	O=C1Nc2c(ccc3ccccc23)S(=O)(=O)N1		
0.0569				1.14	1.75	1.86				1.18	O=C1Nc2ccc(Cl)cc2S(=O)(=O)N1		
0.0987				6.78	0.0761	> 10				4.96	O=C1Nc2ccc(C(=O)O)cc2S(=O)(=O)N1		
0.0358				1.92	1.94	3.81				1.36	COc1ccc2c(c1)S(=O)(=O)NC(=O)N2		
0.0733				0.527	0.854	2.32				0.62	O=C1Nc2c(Br)cccc2S(=O)(=O)N1		
0.189				2.34	5.88	> 10				3.24	CN1C(=O)NS(=O)(=O)c2cc(Cl)ccc21		
0.0282	7.57	16.2	3.52	0.685	1.03	0.93	5.26	10.9	7.35	0.389	O=C1Nc2c(Cl)cccc2S(=O)(=O)N1	36.6	
0.0191	2.73	12	6.53	0.534	0.709	1.29	3.86	18.3	15	0.436	O=C1Nc2ccc(F)cc2S(=O)(=O)N1	125	42
0.408				2.94	2.69	1.92				1.79	Cc1cc(C)c2c(c1)NC(=O)NS2(=O)=O		
0.0787	1.5	14	12.2	0.15	0.675	0.866	1.3	3.53	2.68	0.466	O=C1Nc2ccccc2S(=O)(=O)N1	39.9	59

From ChEMBL document CHEMBL4376843 (J Med Chem, 2020)
